2 molecules from patent US6642365B1, “Anti-(retro)viral conjugates of saccharides and acetamidino or guanidino compounds” (Yeda Research and Development Co. Ltd., priority 2001, dated 2003) can be followed below.

The test system of one test is HIV-1 NL4-3. Kind of test: Anti-HIV assay, MTT, MT-4 cells. The test is classed as cell-based. As to the method:
(§1) The HIV-1 strains NL4-3 and Ba-L and the CD4^+lymphocytic cell lines SUP-T1, MT-4 and MT-2 and P4-CCR5 MAGI cells were obtained from the MRC AIDS reagent program or the NIH, AIDS Research and Reference Reagent Program.
(§2) The cells were infected by incubation with different titers of the HIV-1 strains for 2 hrs at 37° C. in the presence or absence of the AAC of the invention. Then the cells were washed from the virus by centrifugation at 400 g and the supernatants were discarded. The cells were resuspended in culture medium, supplemented with different concentrations of the test compounds. The cells were allowed to proliferate for 5 days, the number of viable cells was quantified by a tetrazolium-based colorimetric method (CellTiter 96® AQueous One solution Cell Proliferation Assay, Promega). Anti-HIV activity in P4-CCR5 MAGI cells was done as follows: cells (1×10^5/ml) were infected with 10 ng/ml of p24 antigen of HIV-1 Ba-L in the presence of varying concentrations of the test compound. 24 hours post infection, cells were washed twice with PBS and resuspended in the medium containing the appropriate drug concentration. Five days after infection the cells were washed with PBS and evaluated for β-galactosidase activity.

Test [1] relates to TAR RNA. Kind of test: RNase A footprinting of TAR RNA. The test is classed as binding, HIV-1. As to conditions: 1 μM TAR, 200 pM RNase A. The method, then: In a typical experiment 10 μl of 5 mM cacodylate buffer pH 6.5, containing 25 mM KCl and 50-100 ng 5′ ^32P-labeled TAR RNA (approximately 0.5-1 μM) were incubated with 200 pM RNase A (Sigma) at room temperature for 10 minutes in the presence of Tat R52 and the conjugates of the invention at various concentrations. In the competition experiments, the mixture was supplemented with 0.5 μg yeast tRNA (Sigma). After the incubation, 10 μl of formamide/bromphenol blue loading buffer was added to the samples. The samples were heated to 80° C. for 2 min and were resolved by electrophoresis on 40 cm×0.8 mm 20% polyacrylamide denaturing gel (7M urea) for 3 hours at 55° C. The results were visualized by a phosphoimager as described above and quantitated using ImageQuant software.
TAR RNA and RNase A concentrations were established by co-titration. To produce a “single-hit” kinetics conditions, 1 μM TAR versus 200 pM RNase A were selected. Tat R52 and AAC concentrations were determined by titration. […] RNase A cleaved TAR RNA in an uneven manner (FIG. 4A., lane 2). The most susceptible regions for cleavage were the single-stranded loop, nucleotides U31-G34 as well as C24 and U25 of the bulge. Strong cleavage was also observed at G21-G41 and A20-U42 pairs (lower stem). Binding of R52 (2-4 μM) caused a weakening of the bands in the upper stem region, (G26-C39, A27-C38, as well as U40) (FIG. 4A., lanes 3, 4). At 4 μM R52, the cleavage at G34 (loop) was enhanced, as well as a certain enhancement of bands A20, G21, U23 and U25 was observed. Remarkably, the band corresponding to the R52-TAR complex still was observed on the gels even after electrophoresis under strongly denaturing conditions. In the presence of R4K (10-20 μM), the upper stem (G26-C29), the lower stem and the bulge (G21-U23, partially C24 and U25) were protected as well as C38, C39 and U40. Cleavage at C19 and A20 of the lower stem and C30, G33 and G34 of the loop was enhanced by 10 μM R4K, whereas with 20 μM R4K the protection of C30, G34 and A20-G21 was observed (FIG. 4A., lanes 5, 6). […] Cleavages at C19-A20 in the lower stem as well as at G30 and G34 in the loop were observed (FIG. 4A., lanes 7, 8). In the presence of GB4K (20 μM) no significant protection was observed.

Another test has as its target CCR5 (Homo sapiens, UniProt P51681). Kind of test: RANTES-induced intracellular calcium signal in THP-1, CCR5+ cells. To be noted: data not shown. On the technique in general: Calcium assays in cells follow changes in intracellular calcium, usually with a dye or a luminescent sensor.
In another test the test system is R5 strain Ba-L. Kind of test: Virus-binding assay, MT-4 cells. As to conditions: dose dependent; data not shown. The test is classed as cell-based, HIV-1. The method, then:
MT4 cells (5×10^5) were incubated with supernatant containing 1×10^5 pg of p24 antigen of wild type HIV-1 in the presence of different concentrations of the test compound. One hour after infection, cells were washed 3 times with PBS and p24 antigen bound to the cells was determined by a commercial ELISA test (Coulter, Spain).

A further test relates to HIV-1 RF. Kind of test: Anti-HIV assay, MTT. The test is classed as cell-based.
The test system of a further test is HIV-1 Ba-L. Kind of test: Anti-HIV assay, β-galactosidase activity in P4-CCR5 MAGI cells. The test is classed as cell-based. As to the method: as §1, §2
In test [2] the test system is HIV-1 AZT-resistant clinical isolate AOM. Kind of test: Anti-HIV assay, MTT. The test is classed as cell-based.
Test [3] concerns TAR RNA. Kind of test: Gel-shift binding to TAR RNA. As to conditions: for Kd: CD50 normalized to the reported conditions (Calnan et al., 1991 b), read-out: apparent Kd; for effect of ten-fold excess of yeast tRNA on complex formation with TAR: ten-fold excess of tRNA (100 ng per lane). More on the design: species or system HIV-1. The method, then:
The model Tat peptide (R52: […]) was prepared by the Weizmann Institute Chemical Services and was purified by reverse phase HPLC (C-18) (Lapidot et al., 1995). […] The RNA was transcriptionally labeled with α-^32P UTP, purified on a 12% polyacrylamide/7M urea gel (19:1 acrylamide:bis-acrylamide) and was eluted from the gel by 0.5M ammonium acetate, 10 mM magnesium acetate, 1 mM EDTA and 0.1% SDS. The sample was subjected to phenol extraction and the RNA was precipitated from 70% ethanol. Purified RNA was dissolved in diethyl pyrocarbonate-treated water (DEPC water), its concentration was determined by UV absorption at 260 nm and the specific radioactivity was determined by scintillation counting on a LS 1701 “Bruker” counter.
To study the affinity of the test compounds to TAR, gel-shift and gel-shift inhibition experiments were performed. The binding reaction mixtures (20 μl) contained ^32P-labeled TAR (18-44) RNA oligonucleotide (3-6 nM) and Tat R52 peptide (35-75 nM) in a binding buffer (10 mM Tris-HCl pH 7.5, 70 mM NaCl, 0.2 mM EDTA and 5% glycerol). The reaction mixtures were incubated for 10 minutes on ice and resolved by electrophoresis on a 10% non-denaturing polyacrylamide gel (40:1 acrylamide:bis-acrylamide) at 200V, for 3 h at 4° C. Gels were dried and visualized by autoradiography. Quantitations were obtained by optical densitometry of films. Alternatively, results were visualized by exposing the wet gels to Fuji phosphoimager plates, which were read on a “Storm 820” (Molecular Dynamics) phosphoimager. […]
Binding of aminoglycoside-arginine conjugates (AAC) to TAR RNA was measured by adding varying concentrations of each conjugate to reaction mixtures (20 μl) which contained 12 nM ^32P-labeled TAR RNA. The reactions were analyzed as described above.

Where [4] appears, read: MTT assay, read-out: EC50 HIV-1 RF.

For orientation: EC50 means the concentration that produces a half-maximal response.

Where two headings read alike, the source gives them in different places.

Chain of CCR5 (P51681 whole entry): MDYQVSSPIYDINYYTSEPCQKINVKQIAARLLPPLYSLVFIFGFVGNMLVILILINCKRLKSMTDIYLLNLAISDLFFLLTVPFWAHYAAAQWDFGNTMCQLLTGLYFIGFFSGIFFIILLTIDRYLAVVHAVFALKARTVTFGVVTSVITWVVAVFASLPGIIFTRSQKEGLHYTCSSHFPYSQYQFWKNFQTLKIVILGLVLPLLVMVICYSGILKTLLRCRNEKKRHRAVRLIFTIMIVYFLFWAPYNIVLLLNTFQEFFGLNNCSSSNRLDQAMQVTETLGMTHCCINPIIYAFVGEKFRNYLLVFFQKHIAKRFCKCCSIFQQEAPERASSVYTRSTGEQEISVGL

As for “Triargininamido-gentamicin conjugate [R3G]”, the EC50 is 15 µM in the test on HIV-1 NL4-3; 35 µM in the test on HIV-1 RF (setting [4]); 16 to 35 µM in the test on HIV-1 RF (range over HIV-1 RF strain, AOM clinical isolate and M-tropic Ba-L strain, read-out: EC50); 29 µM in the test with HIV-1 Ba-L; 16 µM in test [2]. Moreover, the “concentration giving effective protection of TAR” value in the test on TAR RNA [1] stood at 4 µM. Also, on CCR5, the “intracellular Ca2+ signal induced by RANTES” value was “did not inhibit”. Also, the “binding of the R5 strain Ba-L to MT-4 cells” value in the test on R5 strain Ba-L is “inhibited the binding”. Besides, the CD50 with TAR RNA [3] (50% binding, TAR RNA 12 nM) is on record as approximately 500 nM. Also, the Kd at TAR RNA [3] is 0.083 µM. The “effect of ten-fold excess of yeast tRNA on complex formation with TAR” value in the test on TAR RNA [3] is “do not inhibit the binding”.
Take `N=C(N)NCCCC(N)C(=O)NCC1OC(OC2C(NC(=O)C(N)CCCNC(=N)N)CC(NC(=O)C(N)CCCNC(=N)N)C(OC3OC(CO)C(O)C(NC(=O)C(N)CCCNC(=N)N)C3O)C2O)C(O)C(O)C1O` (stereo not shown) [R4K, Tetraargininamido-kanamycin A conjugate]: the EC50 is 31 µM in the test with HIV-1 NL4-3, more than 113 µM with HIV-1 RF (setting [4]), more than 113 µM with HIV-1 Ba-L and 67 µM in test [2]. Moreover, in the test on TAR RNA [1], the “concentration giving effective protection of TAR” value was 10 µM. At CCR5, the “intracellular Ca2+ signal induced by RANTES” value was “did not inhibit”. Also, the “binding of the R5 strain Ba-L to MT-4 cells” value with R5 strain Ba-L is on record as “inhibited the binding”. Moreover, the CD50 in the test on TAR RNA [3] (12 nM 32P-labeled TAR) turned out to be 2500 nM; in the test on TAR RNA [3] (50% binding, TAR RNA 12 nM), 2500 nM. Besides, the Kd at TAR RNA [3] was determined as 0.416 µM. In the test with TAR RNA [3], the “effect of ten-fold excess of yeast tRNA on complex formation with TAR” value is listed as “do not inhibit the binding”.
